Consider 4 molecules from patent USH1168H, “Inhibitors of protein kinase C activity as protectors against septic shock and reducers of ARDS” (priority 1991, dated 1993).

Broadly, the EC50 is the concentration at which the effect is half-maximal.

Structures are written as SMILES. Entries after “also recorded” stand apart in the source; their conditions may differ.

Data set [1] has as its system de-endothelialized rat aortic rings. Kind of data set: KCl-induced contraction of de-endothelialized rat aortic rings after 16 h incubation with LPS and/or sphingosine. It is filed as cell-based. As to conditions: for EC50: Rattus norvegicus, 16 h, de-endothelialized, read-out: EC50 value for KCl stimulated contraction (EC50 of the agonist KCl). The procedure:
(§1) FIG. 3 is a graph showing contraction to cumulative doses of NE and KCl by rat de-endothelialized aortic rings incubated for 16 hr in combinations of control, LPS, and sphingosine treated media. (Panel A) Contraction to NE by rings incubated in medium only (open circles), medium plus sphingosine (20 μM, closed circles), medium containing LPS (35 ng/ml, open triangles), and medium containing LPS plus sphinogosine (closed triangles). (Panel B) Contraction to KCl by rings incubated and denoted with the same symbols as detailed above. Four rings were prepared from each rat and one ring allocated into each medium formulation to evaluate responses to NE. Rings were similarly prepared to determine responses to KCl. Data is presented as in FIG. 1. N=7 rats apiece for assessment of responses to NE and KCl.
(§2) Tissue preparation and incubation. Male Sprague-Dawley rats (250-350 g, Taconic Farms, Germantown, N.Y.) were used. Rat thoracic aortic rings were prepared and incubated as detailed by McKenna (14). In brief, 4 or 6 rings were prepared from each rat. Care was taken during dissection to maintain the patency of the endothelium. Some aortas were de-endothelialized before sectioning into rings by perfusion with phosphate buffered saline (PBS) containing 1% deoxycholate for 30 sec followed by a PBS and bubble rinse for 5 min. Rings were incubated in DME (Dulbecco's Modified Eagle's medium) supplemented with 1% fetal calf serum, 100 μg/ml streptomycin, and 100 U/ml penicillin. During incubation, the rings were exposed to combinations of LPS (10 or 35 ng/ml), H7 (25 μM), HA1004 (N-(2-guanidinoethyl)-5-isoquinolinesulfonamide) (25 μM), sphingosine (20 μM), or their vehicles. […] Rings used in measures of contractile performance were placed individually in Petri dishes containing 1.2 ml DME and were distributed so that tissue isolated from each aorta was allocated to every combination of treatments within an experiment. […] All tissue isolated from an aorta (six rings) was allocated to a single treatment. The media and rings were rotated gently for 16-18 hr in an incubator at 37° C. under a 95% O2 -5% CO2 atmosphere.
(§3) Measurement of aortic ring contraction. After incubation, rings were mounted in tissue baths, equilibrated, and pre-contracted as previously detailed (14). These procedures required approximately 90 min. Rings were maintained in Krebs Ringer Bicarbonate buffer (KRB, 14). Contractions by six or eight rings were measured simultaneously and recorded on multichannel strip chart recorders. […] Other rings were contracted by withdrawing KRB from the tissue baths and adding increasing volumes of a high KCl KRB (120 mM, made by equimolar substitution of KCl for NaCl) to the baths to yield final KCl concentrations of 10 to 80 mM. All rings were blotted and weighed after experiments were completed.
Statistics. […] Tests for differences between EC50 values were based on log EC50 values (17). EC50 values were then converted to […] means to allow expression as nanomolar concentrations. Examination of differences among four or six treatment means was by randomized blocks analysis of variance; if significant differences were present, then pairs of means were tested by Student-Newman-Keuls a posteriori tests (18). Paired t-tests were used to assess differences between two treatment means. […] Differences with probabilities of 0.05 or less were accepted as significant. All data are expressed as means±SEM. […]

In a further data set the test system is PKC. As to conditions: literature (19, 42); cited from earlier work.
Data set [2] relates to de-endothelialized rat aortic rings. Kind of data set: NE-induced contraction of de-endothelialized rat aortic rings after 16 h incubation with LPS and/or sphingosine. As to conditions: for EC50: Rattus norvegicus, 16 h, de-endothelialized, read-out: EC50 value for NE stimulated contraction (EC50 of the agonist NE). It is filed as cell-based. The method, then: as §1, §2, §3
(§4) Statistics. […] Tests for differences between EC50 values were based on log EC50 values (17). EC50 values were then converted to […] means to allow expression as nanomolar concentrations. Examination of differences among four or six treatment means was by randomized blocks analysis of variance; if significant differences were present, then pairs of means were tested by Student-Newman-Keuls a posteriori tests (18). Paired t-tests were used to assess differences between two treatment means. […] Differences with probabilities of 0.05 or less were accepted as significant. All data are expressed as means±SEM.
The amelioration of LPS-induced vascular contractile dysfunction by inhibition of PKC was further explored in de-endothelialized aortic rings incubated with D-sphingosine. The de-endothelialized rings were incubated with 35 ng/ml LPS instead of 10 ng/ml because such rings are not as sensitive to LPS as tissue with an intact endothelium (14). The effective removal of the endothelium was confirmed by the lack of relaxation to acetylcholine by pre-contracted rings during the conditioning procedure.

For data set [3] the following is noted: stated without test or source; cited from earlier work.
The test system of the next data set is platelets. As to conditions: pretreatment; stimulation with thrombin, OAG, linoleic or linolelaidic acid (25); cited from earlier work.
The test system of data set [4] is deendothelialized rat aortas. As to conditions: literature (26); cited from earlier work.
The test system of data set [5] is endothelial cells. The note with it: literature (3); cited from earlier work.
Data set [6] deals with endothelial cells. As to conditions: literature (1, 2); cited from earlier work.
The test system of data set [7] is intact endothelium rat aortic rings. Kind of data set: NE-induced contraction of intact rat aortic rings after 16 h incubation with LPS and/or PKC inhibitors. It is filed as cell-based. As to conditions: for EC50: Rattus norvegicus, 16 h, intact endothelium, read-out: EC50 value for NE stimulated contraction (EC50 of the agonist NE). The method, then: FIG. 1 is a graph showing contraction to cumulative doses of NE by rat aortic rings incubated for 16 hr in combinations of control, LPS (endotoxin or lipopolysaccharide), H7, and N-(2-guanidinoethyl)-5-isoquinolinesulfonamide (HA1004; a negative control for H7) treated media. (Panel A) Responses by rings incubated in medium only (open circles), medium plus H7 (25 μM, closed circles), medium containing LPS (10 ng/ml, open triangles), and medium containing LPS plus H7 (closed triangles). (Panel B) For clarity in presentation, responses by rings incubated in medium only (open circles) and LPS treated medium (open triangles) are reproduced from Panel A. Additional rings were incubated in medium plus HA1004 (25 μM, closed circles), and medium containing LPS plus HA1004 (closed triangles). Six rings were prepared from each rat and one ring allocated into each medium formulation. […] The curves are the best fit of the data by nonlinear least squares to a polynomial model. N=8 rats.
as §2, §3, §4

For data set [8] the test system is unchanged. Kind of data set: KCl-induced contraction of intact rat aortic rings after 16 h incubation with LPS and/or PKC inhibitors. The note with it: for EC50: Rattus norvegicus, 16 h, intact endothelium, read-out: EC50 value for KCl stimulated contraction (EC50 of the agonist KCl). It is filed as cell-based. The procedure:
FIG. 2 is a graph showing contraction to cumulative doses of KCl by rat aortic rings incubated for 16 hr in combinations of control, LPS, H7, and HA1004 treated media. (Panel A) Response by rings incubated in medium only (open circles), medium plus H7 (25 μM, closed circles), medium containing LPS (10 ng/ml, open triangles), and medium containing LPS plus H7 (closed triangles). (Panel B) For clarity in presentation, responses by rings incubated in medium only (open circles) and LPS treated medium (open triangles) are reproduced from Panel A. Additional rings were incubated in medium plus HA1004 (25 μM, closed circles), and medium containing LPS plus HA1004 (closed triangles). Rings were prepared and data is presented as described in FIG. 1. N=6 rats.
as §2, §3, §4

For data set [9], the system named is Rabbit aortic smooth muscle cells. The note with it: literature (29); cited from earlier work.
Data set [10] has the same test system. As to conditions: literature; cited from earlier work.
In another data set the test system is human neutrophils. The note with it: PMA alone (31); cited from earlier work.
[11] abbreviates: LPS-treated media, alone or plus sphingosine 20 μM.
Setting [12] is: control media (no LPS) plus sphingosine 20 μM.
[13] abbreviates: sphingosine 20 μM plus LPS 35 ng/ml.
[14] abbreviates: LPS 10 ng/ml plus inhibitor 25 μM.
The mark [15] stands for this setting: LPS-treated media (10 ng/ml), alone or plus inhibitor 25 μM.
The mark [16] stands for this setting: control media (no LPS) plus inhibitor 25 μM.
The mark [17] stands for this setting: inhibitor 25 μM by itself, no LPS.

As to `CCCCCCCCCCCCC/C=C/[C@@H](O)[C@@H](N)CO` [Sphingosine, 4-trans-sphingenine], the EC50 is 27 mM in data set [1] (setting [11]), 24 ± 2 mM in [1] (setting [12]), 124 nM in [2] (setting [11]) and 21 nM in [2] (setting [12]). The “contraction to KCl” value in data set [1] (sphingosine 20 μM only, no LPS) was “suppressed contractions to NE and KCl; also recorded: significantly diminished maximum contractions to NE and KCl”. Besides, the “protection against LPS suppression of KCl-induced contraction” value in [1] (setting [13]) is on record as “significantly protected”. In addition, the “EC50 for KCl versus control rings” value in [1] (sphingosine 20 μM, whether or not LPS was present) is on record as “not significantly different from control rings”. Further, the “inhibition of PKC” value in the data set on PKC is “capable of inhibiting PKC in vivo and in vitro”. In addition, in data set [2] (de-endothelialized rings, sphingosine 20 μM), the “abrogation/prevention of LPS-induced contractile dysfunction” value is “clearly abrogated the majority of the deleterious effects of LPS on rat aortic tissue contractile function; also recorded: can be prevented”. Further, the “contraction to NE” value in data set [2] (sphingosine 20 μM only, no LPS) is “suppressed contractions to NE and KCl; also recorded: significantly diminished maximum contractions to NE and KCl”. The “protection against LPS suppression of NE-induced contraction” value in [2] (setting [13]) is recorded as “significantly protected”. In addition, in [2] (setting [13]), the “sensitivity to NE versus control rings” value is “remained less than that of control rings”. Further, the “sensitivity to NE versus rings exposed only to LPS” value in [2] (sphingosine 20 μM plus LPS 35 ng/ml, P<0.05) was “more sensitive to NE than rings exposed only to LPS”. Also, the solubility in water result in [3] is “not soluble in water”.
Turning to `CC1CNCCN1S(=O)(=O)c1cccc2cnccc12` (stereo not shown) [H7, 1-(5-isoquinolinylsulfonyl)-2-methyl piperazine], the “platelet aggregation after stimulation” value with platelets is reported as “blocked”. For the same molecule, in [4], the “blocking of PDB induced contraction” value was “ineffective blocker of PDB induced contraction” and the “inhibition of KCl elicited contraction” value is “significantly inhibits KCl elicited contraction”. For the same molecule, the “endothelial cell permeability response to inflammatory agents” value in the data set with endothelial cells [5] is given as “abrogated”. In the data set on endothelial cells [6], the “adhesive proteins on endothelial cell surfaces” value is reported as “reduced”. Further, in [7] (setting [14]), the “EC50 and Emax (sensitivity and maximum contraction) to NE versus control tissue” value is listed as “not significantly different from control tissue”. Moreover, the EC50 in data set [7] (setting [15]) worked out at 99 nM. Moreover, in [7] (setting [16]), the EC50 amounted to 51 ± 15 nM. Further, the “blocking of LPS effects on contraction to NE” value in data set [7] (co-incubation, inhibitor 25 μM, LPS 10 ng/ml) was “blocked”. In addition, in [7] (setting [17]), the “contractile function / sensitivity to NE” value is on record as “little change in contractile function”. Further, the “abrogation of LPS effects on contractile function” value in data set [7] (intact rings, H7 25 μM) is “clearly abrogated the majority of the deleterious effects of LPS on rat aortic tissue contractile function”. For the same molecule, in data set [8] (setting [14]), the “EC50 and Emax values to KCl versus control tissue” value is “did not vary significantly from control tissue”; the “protection against LPS-induced contractile dysfunction (KCl)” value is given as “shielded the tissue from LPS-induced contractile dysfunction”. Also, the EC50 in data set [8] (setting [15]) came out at 32 mM. Moreover, the EC50 in data set [8] (setting [16]) amounted to 28 ± 1 mM. In addition, in [8] (setting [17]), the “maximum contraction to KCl” value is reported as “significant increases in maximum contraction” and the “sensitivity to KCl” value is “no enhancement in sensitivity to KCl”.
As to `CCCCCCCCCCCCCC(=O)O[C@@H]1[C@@H](C)[C@@]2(O)[C@@H](C=C(CO)C[C@]3(O)C(=O)C(C)=C[C@@H]23)[C@@H]2C(C)(C)[C@]12OC(C)=O` [TPA], the “whole blood serum induced intracellular Ca^2+ mobilization” value in data set [9] is recorded as “inhibits whole blood serum induced intracellular Ca^2+ mobilization”. Besides, the cell proliferation entry in data set [10] is recorded as “modulates cell proliferation”.
`CCCCCCCCCCCCCC(=O)O[C@@H]1[C@@H](C)[C@@]2(O)[C@@H](C=C(CO)C[C@]3(O)C(=O)C(C)=C[C@@H]23)[C@@H]2C(C)(C)[C@]12OC(C)=O` [PMA]: the “synthesis of PAF or LTB4” value with human neutrophils is listed as “could not cause synthesis of either PAF or LTB4”.
